These results are taken from patent publication US20140328918A1, “METHODS OF TREATING A SUBJECT AND RELATED PARTICLES, POLYMERS AND COMPOSITIONS” (CERULEAN PHARMA INC., priority 2010, published 2014).

“And” between values parts separate entries of the source, which are not always exact repeats. Equal entries are not always repeated. Where two headings read alike, the source gives them in different places.

What is called IC50 is the midpoint of a concentration-inhibition curve. Low values mean inhibition by little substance, high ones a need for much substance.

Data set [1] in a line: Body weight and ataxia in MDA-MB-435 tumor-bearing mice (Example 82). Format: in vivo, female CD-1 nude mice. The note with it: for body weight loss: weekly×two injections.
Protocol: The treatments were administered IV into the tail vein at the dose volumes stated above, beginning on post-implantation Day 21, when the mean tumor volume was 150 mm^3 or, for one group, on Day 37, when the mean tumor volume for that group was 433 mm^3.
Data set [2] is described as follows: Tolerability in normal non-tumor-bearing mice: body weight, CBC, serum chemistry, ataxia, sciatic nerve histopathology (Example 83). Format: in vivo, male C57BL/6 mice. The protocol:
Treatments were administered intravenously on a q7d×2 schedule, i.e., two treatments seven days apart (the first treatment was on Day one). The study ended on Day 14, six days after the 2nd treatment. Blood was collected for complete blood count (CBC) and serum chemistry. Leg muscles were collected so that nerve degeneration could be assessed from the sciatic nerve.

Data set [3] relates to B16.F10 cells. As to the kind of experiment: Efficacy of docetaxel-2′-5050 PLGA-O-acetyl nanoparticles in mouse melanoma model B16.F10 (Example 84). It is filed as in vivo, male C57BL/6 mice. The following applies: 30 mg/kg, 1/wk×3.
Protocol: B16.F10 cells were grown in culture to 85-90% confluency in MEM-alpha medium supplemented with 10% fetal bovine serum (FBS) and 1% penicillin/streptomycin. Cells were removed from the culture flask using 0.05% trypsin (passage=4), re-suspended in PBS (density=10×10^6 cells/mL) and were implanted subcutaneously (1×10^6 cells in 100 μL MEM-alpha medium/mouse) into the right flank of male C57BL/6 mice on day 1.
(§1) The treatments were administered IV into the tail vein at a dose volume of 10 and 15 ml/kg for a corresponding dose of 30 mg/kg and 45 mg/kg respectively, beginning on post-implantation day 5, when the mean tumor volume was ca. 60 mm^3 Body weight and tumor volume were measured three times a week. In addition, animals were also monitored for any morbidity and adverse effects three times a week.
Tumor volume was calculated with (width×width×length)/2 mm^3 formula. Efficacy was determined by tumor growth inhibition (TGI), tumor growth delay (TGD) and survival. Tumor growth inhibition (TGI) is represented as % and calculated as (1−(treated tumor volume/control tumor volume))×100 when the control group mean tumor volume reached ≧3000 mm^3. Tumor growth delay (TGD) is calculated by subtracting the day when the vehicle treated group reached the maximum tumor size 3000 mm^3 from the day when the treatment group tumor size reached 3000 mm^3. […]
Data set [4] is described as follows: Tolerability in mouse melanoma model B16.F10 (Example 84). It is filed as in vivo, male C57BL/6 mice. The following applies: 30 mg/kg, 1/wk×3.
Protocol: as §1
Data set [5] concerns ADR-RES cells. Kind of data set: Efficacy in docetaxel resistant model ADR-RES (Example 85). Format: in vivo, female nu/nu mice.
Protocol: ADR-RES cells were grown in culture to 85-90% confluency in RPMI medium supplemented with 10% fetal bovine serum (FBS), 1% glutamine and 1% penicillin/streptomycin.
(§2) The treatments were administered IV into the tail vein at a dose volume of 10 and 20 mL/kg for 30 and 60 mg/kg respectively, beginning on post-implantation day 47, when the mean tumor volume was ca. 150 mm^3 Body weight and tumor volume were measured for three times a week during the dosing period and twice a week thereafter. In addition, animals were also monitored for any morbidity and adverse effects for three times a week during the dosing period and twice a week thereafter.
Tumor volume was calculated with (width×width×length)/2 mm^3 formula. Efficacy was determined by tumor growth inhibition (TGI), tumor growth delay (TGD) and survival. Tumor growth inhibition (TGI) is represented as % and calculated as (1−(treated tumor volume/control tumor volume))×100 when the control group mean tumor volume reached ≧1000 mm^3 Tumor growth delay (TGD) is calculated by subtracting the day when the vehicle treated group reached the maximum tumor size 1000 mm^3 from the day when the treatment group tumor size reached 1000 mm^3.
Data set [6] is described as follows: Tolerability in ADR-RES model (Example 85). Format: in vivo, female nu/nu mice.
Protocol: as §2
Data set [7] has as its system H1299 cells. Kind of data set: Efficacy in non-small cell lung carcinoma model H1299 (Example 86). Format: in vivo, male nu/nu mice. The note with it: 30 mg/kg.
Protocol: H1299 cells were grown in culture to 85-90% confluency in RPMI medium supplemented with 10% fetal bovine serum (FBS), 1% glutamine and 1% penicillin/streptomycin. Cells were removed from the culture flask using 0.05% trypsin (passage=4), re-suspended in RPMI medium (density=50×10^6 cells/mL) and were implanted subcutaneously (5×10^6 cells in 100 μL RPMI medium/mouse) into the mammary fat pad area of male nu/nu mice on day 1.
(§3) The treatments were administered IV into the tail vein at a dose volume of 10 and 20 mL/kg for 30 and 60 mg/kg respectively, beginning on post-implantation day 30 when the mean tumor volume was ca. 170 mm^3 (small tumor group), and on day 37 when the mean tumor volume was ca. 440 mm^3 (large tumor group). Body weight and tumor volume were measured for three times a week during the dosing period and twice a week thereafter. In addition, animals were also monitored for any morbidity and adverse effects for three times a week during the dosing period and twice a week thereafter.
(§4) Tumor volume was calculated with (width×width×length)/2 mm^3 formula. Efficacy was determined by tumor growth inhibition (TGI), tumor growth delay (TGD) and survival. Tumor growth inhibition (TGI) is represented as % and calculated as (1−(treated tumor volume/control tumor volume))×100 when the control group mean tumor volume reached ≧1000 mm^3. Tumor growth delay (TGD) is calculated by subtracting the day when the vehicle treated group reached the maximum tumor size 1000 mm^3 from the day when the treatment group tumor size reached 1000 mm^3.
Data set [8] is described as follows: Tolerability in H1299 model (Example 86). Format: in vivo, male nu/nu mice.
Protocol: as §3, §4
The subject of data set [9] is B16.F10 cells. Kind of data set: Efficacy of docetaxel-2′-alanine-glycolate and -2′-glycine-5050 PLGA-O-acetyl nanoparticles in mouse melanoma model B16.F10 (Example 87). It is filed as in vivo, male C57BL/6 mice. The following applies: 1/wk×3.
Protocol: B16.F10 cells were grown in culture to 85-90% confluency in MEM-alpha medium supplemented with fetal bovine serum (FBS) and 1% penicillin/streptomycin. Cells were removed from the flask using 0.05% trypsin (passage=4), re-suspended in PBS (density=10×10^6 cells/mL) and were implanted subcutaneously (1×10^6 cells in 100 μL PBS/mouse) into the right flank of male C57BL/6 mice on day 1.
(§5) The treatments were administered IV into the tail vein at a dose volume of 10 ml/kg, beginning on post-implantation day 5, when the mean tumor volume was ca. 60 mm^3. Animals were monitored for any morbidity and adverse effects three times a week. In addition, body weight and tumor volume were also measured three times a week.
Tumor volume was calculated with (width×width×length)/2 mm^3 formula. Efficacy was determined by tumor growth inhibition (TGI), tumor growth delay (TGD) and survival. Tumor growth inhibition (TGI) is represented as % and calculated as (1−(treated tumor volume/control tumor volume))×100 when the control group mean tumor volume reached ≧3000 mm^3. Tumor growth delay (TGD) is calculated by subtracting the day when the vehicle treated group reached the maximum tumor size 3000 mm^3 from the day when the treatment group tumor size reached 3000 mm^3. The criterion at which a mouse was removed from the study was tumor volume≧3000 mm^3
The nature of data set [10]: Tolerability in mouse melanoma model B16.F10 (Example 87). It is filed as in vivo, male C57BL/6 mice. The following applies: 1/wk×3.
Protocol: as §5
The nature of data set [11]: Lyophilization and reconstitution of PEGylated nanoparticles: appearance and particle size (Zetasizer). It is filed as physicochemical. The note with it: PLGA7K-PVA-PEG2K-30 and PLGA7K-PVA-PEG5K-30 PEGylated nanoparticle formulations, lyoprotectant/nanoparticle weight ratio 1:1.
Description: Nanoparticles comprising therapeutic agents were lyophilized using three different techniques. The first technique was a simple freeze drying technique where the liquid formulations were frozen with liquid nitrogen followed by drying under vacuum overnight at room temperature. During this simple lyophilization technique a Labconco® freeze dryer (available from Labconco Corp. of Kansas City, Mo.) was used. […] Instead of conventional multi-step ramping and holding, one step slow ramping was used in this approach.
Both the rapid cycle and conventional cycle lyophilization reactions were performed using a VirTis advantage freeze dryer.
A lyoprotectant screen was performed as follows. The critical point for design of a lyophilization cycle was to keep the temperature below the glass transition temperature (Tg′) of the lyoprotectant during the primary drying stage.
In this example, a new strategy of using cyclodextrins and their derivatives as a cryoprotectant was tested.
PEGylated nanoparticle formulations were analyzed for nanoparticle size prior to lyophilization, and lyophilized preparations that were completely resuspended by hand shaking were analyzed for nanoparticle size with a Zetasizer particle sizer. […] Prior to lyophilization, lyoprotectants and non-cyclic carbohydrates were added to PEGylated nanoparticle formulations at different weight ratios.
Data set [12] in a line: Stability of 1H NMR sample stored at ambient temperature. Format: physicochemical. The note with it: 4 days. As to the method: Docetaxel-2′-aminoethyldithioethyl carbonate.DCA [2.77 g] was dissolved in DCM (100 mL) to produce a clear solution. It was washed with saturated NaHCO3 (2×40 mL). The organic layer was separated, dried over sodium sulfate and filtered. The filtrate was concentrated to ˜10 mL, to which heptanes (100 mL) was slowly added resulting in a suspension. It was stirred for 0.5 h and filtered (30 mL heptanes wash). The filter cake was vacuum-dried at ambient temperature for 16 h to afford the free base of CPX1231 [2.17 g, yield: 88%].

Data set [13] can be described thus: Body weight changes in A2780 tumor-bearing mice (Example 78). Format: in vivo, female CD-1 nude mice. The note with it: Day 36. The protocol:
The stock solution was diluted further with PBS to 1.5 mg/mL (for a dose of 15 mg/kg at 10 mL/kg and 30 mg/kg at 20 mL/kg). This formulation was made within 30 minutes of administration to mice.
The treatments were administered 2 times, on Day 8 and Day 15 (weekly×2 injections) for n=8 mice per group. […] On Day 50, the study was ended for all remaining mice. When removed from the study, mice were euthanized by CO2 inhalation.

The subject of data set [14] is B16.F10 cells. As to the kind of experiment: Efficacy of PEGylated docetaxel-5050 PLGA-O-acetyl nanoparticles (2k/5k mPEG-PLGA), B16.F10 murine melanoma (Example 79). Format: in vivo, male C57BL/6 mice. The note with it: q7dx3, 30 mg/kg. As to the method:
Refer to table for detailed description of formulations.
Tumor volume was calculated with the following equation: (width×width×length)/2 mm^3.

Data set [15] is described as follows: Body weight and ataxia in SK-OV-3 tumor-bearing mice (Example 81). It is filed as in vivo, female CD-1 nude mice. The following applies: 60 mg/kg, weekly×two injections.
The conditions of data set [16]: mouse, in vivo.
Protocol: The stock solution was diluted further with PBS to 0.6, 1.5, 3, 4.5 and 6 mg/mL (for a corresponding dose of 6, 15, 30, 45 and 60 mg/kg) so that all the groups received the same amount of ethanol, polysorbate 80, water and PBS. […] 5) PEGylated O-acetyl-5050-PLGA nanoparticle vehicle at the highest concentration of 6 mg/mL.
The treatments were administered IV into the tail vein at a dose volume of 10 mL/kg, beginning on post-implantation Day 5, when the mean tumor volume was 55 mm^3. The treatments were administered 4 times, on Days 5, 8, 12 and 15 (biweekly×4 injections). On Day 17 post-tumor implantation, mice were euthanized by CO2 inhalation according to the procedure guideline. Blood was collected by cardiac puncture and put into ethylenediaminetetraacetic acid (EDTA) or serum separation blood collection tubes. Whole blood was analyzed on the day of collection for CBC analyses. After the blood clotted and was centrifuged, serum was frozen immediately on dry ice for serum chemistry analyses.
Tolerability was determined by changes in body weight, expressed as a percent of the initial body weight on post-implantation Day 5. […] Other indices of toxicity, complete blood count (CBC) and serum chemistry were determined from blood collected from animals that were euthanized on Day 17 by CO2 inhalation, according to the procedure guideline.
Data set [17] relates to B 16.F10 cells. As to the kind of experiment: CellTiter-Glo cytotoxicity of nanoparticles formed from CDP-linker-docetaxel compounds (Example 131). Format: cell-based, mouse. The following applies: CellTiter-Glo, 24, 48 and 72 hours of incubation. As to the method:
To measure the cytotoxic effect of CDP-linker-docetaxel compounds, the CellTiter-Glo Luminescent Cell Viability Assay (CTG) was used. […] B 16.F10 cells, grown to 85-90% confluency in 150 cm2 flasks (passage<30), were resuspended in media (MEM-alpha, 10% HI-FBS, 1× antibiotic-antimycotic solution) and added to 96-well opaque-clear bottom plates at a concentration of 1500 cells/well in 200 μL/well. The cells were incubated at 37° C. with 5% CO2 for 24 hours. The following day, serial dilutions of 2× concentrated particles and 2× concentrated free drug were made in 12-well reservoirs with media to specified concentrations. The media in the plates was replaced with 100 μL of fresh media and 100 μL of the corresponding serially diluted drug. Three sets of plates were prepared with duplicate treatments. Following 24, 48 and 72 hours of incubation at 37° C. with 5% CO2, the media in the plates was replaced with 100 μL of fresh media and 100 μL of CTG solution, and then incubated for 5 minutes on a plate shaker at room temperature set to 450 rpm and allowed to rest for 15 minutes. Viable cells were measured by luminescence using a microtiter plate reader. The data was plotted as % viability vs. concentration and standardized to untreated cells.
(In ATP-based viability assays light output follows the ATP content of the culture.)

The nature of data set [18]: Particle properties (Zavg, PDI, Dv50, Dv90) by dynamic light scattering. It is filed as physicochemical. The note with it: polymer conjugate. From the text: Particle solution properties were characterized by dynamic light scattering (DLS) spectrometer.

As for `CC(=O)O[C@@]12CO[C@@H]1C[C@H](O)[C@@]1(C)C(=O)[C@H](O)C3=C(C)[C@@H](OC(=O)[C@H](O)[C@@H](NC(=O)OC(C)(C)C)c4ccccc4)C[C@@](O)([C@@H](OC(=O)c4ccccc4)[C@H]21)C3(C)C` [Free docetaxel, docetaxel], the Ataxia result in data set [1] (60 mg/kg) is given as “Ataxia was observed four days after the second treatment”. In data set [2] (q7d×2), the serum chemistry parameters entry is “did not affect any serum chemistry parameter at doses up to 60 mg/kg”. For the same compound, the “survival on day 40” value in data set [3] and in [9] (30 mg/kg) was 50% in each case. In addition, the “survival on day 45” value in data set [3] and in [9] (30 mg/kg) was 0% in each case. In addition, the “Maximum body weight loss (%)” value was determined as 12% in data set [4]; 9% in [6] (30 mg/kg, 1/biwk×3); 6% in data set [6] (30 mg/kg, 1/wk×2); 21% in [6] (60 mg/kg, 1/biwk×3); 23% in [6] (60 mg/kg, 1/wk×2); 19% in data set [8] (30 mg/kg, 1/wk×2, large tumor group). In addition, the “Maximum body weight loss (%)” value is 18% in [8] (30 mg/kg, 1/wk×2, small tumor group); 2% in data set [10] (15 mg/kg); 12% and 14% in [10] (30 mg/kg). For the same compound, the “survival on day 102” value in data set [5] (30 mg/kg, 1/biwk×3) is listed as 50%. Further, the “survival on day 106” value in data set [5] (30 mg/kg, 1/wk×2) turned out to be 50%; in data set [5] (60 mg/kg, 1/wk×2), 50%. Further, the “day mean tumor volume endpoint (≧1000 mm^3) reached” value in data set [5] (60 mg/kg, 1/wk×2) was determined as 106 days. The “body weight loss / hind limb paralysis” value in [6] (30 mg/kg, 1/biwk×3) was “did not cause any significant body weight loss (<10%) or hind limb paralysis”; in data set [6] (30 mg/kg, 1/wk×2), “did not cause any significant body weight loss (<10%) or hind limb paralysis”; in [6] (60 mg/kg, 1/biwk×3), “severe hind limb paralysis following the third injection”; in data set [6] (60 mg/kg, 1/wk×2), “hind limb paralysis after the 2nd injection followed by recovery”; in [8] (30 mg/kg, large tumor group), “did not cause any significant body weight loss or hind limb paralysis”; in data set [8] (30 mg/kg, small tumor group), “did not cause any significant body weight loss or hind limb paralysis”. The “body weight loss / hind limb paralysis” value is “significant body weight loss and severe hind limb paralysis following the second injection” in data set [8] (60 mg/kg, large tumor group); “significant body weight loss and severe hind limb paralysis following the second injection” in data set [8] (60 mg/kg, small tumor group). In [7] (large tumor group), the “survival on day 61” value is 50%. Besides, the “survival on day 80” value in data set [7] (large tumor group) is given as 0%. Also, the “survival on day 56” value in [7] (small tumor group) was found to be 50%. In addition, the “survival on day 68” value in data set [7] (small tumor group) came to 0%. The “survival on day 29” value in [9] (15 mg/kg) is 50%. The “survival on day 43” value in [9] (15 mg/kg) and in data set [9] (30 mg/kg) was 0% in each case. Further, the “survival on day 36” value in [9] (30 mg/kg) is on record as 50%.
Consider `OC[C@@H](O)[C@@H](O)[C@H](O)[C@H](O)CO` [Mannitol, mannitol], for which the “maintenance of particle size after simple lyophilization” value in [11] was “None of mannitol, sucrose and trehalose worked at the same ratio”.
Still for that read-out and setting: as for `OC[C@H]1O[C@@](CO)(O[C@H]2O[C@H](CO)[C@@H](O)[C@H](O)[C@H]2O)[C@@H](O)[C@@H]1O` [Sucrose, sucrose], the entry is “None of mannitol, sucrose and trehalose worked at the same ratio”; as for `OC[C@H]1O[C@H](O[C@H]2O[C@H](CO)[C@@H](O)[C@H](O)[C@H]2O)[C@H](O)[C@@H](O)[C@@H]1O` [Trehalose, trehalose], “None of mannitol, sucrose and trehalose worked at the same ratio”.
For `CC(=O)O[C@@]12CO[C@@H]1C[C@H](O)[C@@]1(C)C(=O)[C@H](O)C3=C(C)[C@@H](OC(=O)[C@H](OC(=O)OCCSSCCN)[C@@H](NC(=O)OC(C)(C)C)c4ccccc4)C[C@@](O)([C@@H](OC(=O)c4ccccc4)[C@H]21)C3(C)C` [docetaxel-2′-aminoethyldithioethyl carbonate], in data set [12], the “degradation of 1H NMR sample” value was “no indication of degradation”.
As for `CC(=O)O[C@@]12CO[C@@H]1C[C@H](O)[C@@]1(C)C(=O)[C@H](O)C3=C(C)[C@@H](OC(=O)[C@H](O)[C@@H](NC(=O)OC(C)(C)C)c4ccccc4)C[C@@](O)([C@@H](OC(=O)c4ccccc4)[C@H]21)C3(C)C` [docetaxel], the “% of the initial body weight” value in data set [13] (15 mg/kg) is on record as 113±11%; in data set [13] (30 mg/kg), 105±9%. For the same compound, the “day average tumor volume reached the end point of 3000 mm^3” value in data set [14] is 37 days. Further, the Ataxia result in [15] is “observed in all the mice four days after the second treatment”. In addition, the figures for the body weight loss in data set [1] (15 mg/kg) and in [1] (30 mg/kg) were 10% and 14%, respectively. Moreover, the “body weight above the initial on Day 14” value is reported as 3% in data set [2] (30 mg/kg q7d×2) and 2% in data set [2] (45 mg/kg q7d×2). In data set [2] (30 and 45 mg/kg q7d×2), the “weight gained at the second treatment” value is given as “up to 7%”. For the same compound, the serum chemistry parameters result in data set [16] is “did not affect any serum chemistry parameter at doses up to 30 mg/kg”.
For the compound `OC[C@H]1O[C@@H]2O[C@H]3[C@H](O)[C@@H](O)[C@@H](O[C@H]4[C@H](O)[C@@H](O)[C@@H](O[C@H]5[C@H](O)[C@@H](O)[C@@H](O[C@H]6[C@H](O)[C@@H](O)[C@@H](O[C@H]7[C@H](O)[C@@H](O)[C@@H](O[C@H]1[C@H](O)[C@H]2O)O[C@@H]7CO)O[C@@H]6CO)O[C@@H]5CO)O[C@@H]4CO)O[C@@H]3CO` [α-CD, α cyclodextrin], the “maintenance of particle size after simple lyophilization” value in data set [11] was “also worked at the same weight ratio”.
The same measure, in the same setting: as for `OC[C@H]1O[C@@H]2O[C@H]3[C@H](O)[C@@H](O)[C@@H](O[C@H]4[C@H](O)[C@@H](O)[C@@H](O[C@H]5[C@H](O)[C@@H](O)[C@@H](O[C@H]6[C@H](O)[C@@H](O)[C@@H](O[C@H]7[C@H](O)[C@@H](O)[C@@H](O[C@H]8[C@H](O)[C@@H](O)[C@@H](O[C@H]9[C@H](O)[C@@H](O)[C@@H](O[C@H]1[C@H](O)[C@H]2O)O[C@@H]9CO)O[C@@H]8CO)O[C@@H]7CO)O[C@@H]6CO)O[C@@H]5CO)O[C@@H]4CO)O[C@@H]3CO` [γ-CD, γ cyclodextrin], the entry is “also worked at the same weight ratio”.
In data set [17], CDP-2′-glycine-docetaxel gave an IC50 of 1.2 to 3.7 nM.
Same read-out and setting: the same measure for CDP-Alanine Glycolate-Docetaxel: 0.4 to 2 nM.
CDP-Gly-SN-38: the particle size in [18] is 27.9 nm.
CDP-dithiolethyloxy-carbonate-docetaxel returned an IC50 in data set [17] of 23 nM.
Same read-out and setting: as for “CDP-hexanoate-docetaxel [CDP-hexanoate-docetaxel nanoparticles]”, the figure is 325 to 440 nM.
